Results from publication PMC3320663 (Chemmedchem, 2011).
Where two headings read alike, the source gives them in different places.

Target: T1, TbTryS (Trypanosoma brucei, UniProt Q586P2)
T1 sequence (Q586P2 1-627): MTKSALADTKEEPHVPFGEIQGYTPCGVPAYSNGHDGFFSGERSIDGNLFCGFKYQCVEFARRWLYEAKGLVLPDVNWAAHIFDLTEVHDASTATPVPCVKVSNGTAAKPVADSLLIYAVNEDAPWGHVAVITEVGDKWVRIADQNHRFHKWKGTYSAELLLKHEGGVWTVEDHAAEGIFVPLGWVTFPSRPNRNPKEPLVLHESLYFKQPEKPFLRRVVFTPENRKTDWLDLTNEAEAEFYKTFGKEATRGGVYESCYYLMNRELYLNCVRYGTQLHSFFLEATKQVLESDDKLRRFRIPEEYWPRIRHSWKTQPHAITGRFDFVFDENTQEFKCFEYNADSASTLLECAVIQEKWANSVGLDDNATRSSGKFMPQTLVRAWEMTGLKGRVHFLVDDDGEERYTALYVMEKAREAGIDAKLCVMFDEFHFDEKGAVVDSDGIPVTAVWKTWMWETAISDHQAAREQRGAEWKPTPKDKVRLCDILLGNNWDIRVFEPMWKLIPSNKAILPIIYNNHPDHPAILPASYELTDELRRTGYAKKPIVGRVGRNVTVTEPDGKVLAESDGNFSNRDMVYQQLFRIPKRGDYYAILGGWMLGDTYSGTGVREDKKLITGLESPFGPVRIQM
Experiment: Trypanothione synthetase
Type: biochemical
Conditions: for LE (ligand efficiency): calculated as −0.6×ln(IC50)/(heavy atom count); for loss in activity (heterocycle at indazole position 3): indazole series, initial compound 60

| Molecule | IC50 (TbTryS IC50) [nM] | LE (ligand efficiency) | also measured |
| --- | --- | --- | --- |
| CN(C)CCNC(=O)Cn1nc(-c2cccc(F)c2)c2ccccc21 [Compound 83, N-(2-(Dimethylamino)ethyl)-2-(3-(3-fluorophenyl)-1H-indazol-1-yl)acetamide] | 145 | 0.38 |  |
| Cc1ccccc1-c1csc(CS(=O)(=O)C(C)(C)C)n1 [Compound 4, 2-((tert-Butylsulfonyl)methyl)-4-(2-methylphenyl)thiazole] | 3200 |  |  |
| Cc1nc(Cn2nc(-c3cccc(F)c3)c3ccccc32)c(C)o1 [Compound 77, 4-((3-(3-Fluorophenyl)-1H-indazol-1-yl)methyl)-2,5-dimethyloxazole] | 28000 | 0.26 |  |
| CC(C)(C)C(=O)Cn1nc(-c2ccc3ccccc3c2)c2ccccc21 [Compound 64, 3,3-Dimethyl-1-(3-(naphthalen-2-yl)-1H-indazol-1-yl)butan-2-one] | > 100000 |  |  |
| N-Methyl-(3-(dimethylamino)propyl)-2-(3-(3-fluorophenyl)-1H-indazol-1-yl)acetamide [Compound 85] |  | 0.35 | IC50 (read-out: TbTryS IC50): 170 nM |
| Cn1ccc2c(-c3nn(CC(=O)C(C)(C)C)c4ccccc34)cccc21 [Compound 63, 3,3-Dimethyl-1-(3-(1-methyl-1H-indol-4-yl)-1H-indazol-1-yl)butan-2-one] | > 100000 |  |  |
| CC(C)(C)S(=O)(=O)Cc1nn(-c2ccccc2)c2ccccc12 [Compound 72, 3-(tert-Butylsulfonylmethyl)-1-phenyl-1H-indazole] | 220 | 0.40 |  |
| CC(C)(C)C(=O)Cn1nnc(-c2cc(Cl)cc(Cl)c2)n1 [Compound 20, 1-(5-(3,5-Dichlorophenyl)-2H-tetrazol-2-yl)-3,3-dimethylbutan-2-one] | 300 | 0.45 | gain in potency relative to unsubstituted scaffold 14: 25 fold |
| CC(C)(C)C(=O)Cn1nc(-c2ccsc2)c2ccccc21 [Compound 68, 3,3-Dimethyl-1-(3-(thiophen-3-yl)-1H-indazol-1-yl)butan-2-one] | 400 | 0.42 |  |
| CC(=O)Cn1nnc(-c2cc(Cl)cc(Cl)c2)n1 [Compound 21, 1-(5-(3,5-Dichlorophenyl)-2H-tetrazol-2-yl)propan-2-one] | 6500 |  |  |
| CC(C)(C)C(=O)Cn1nnc(-c2cc(F)cc(F)c2)n1 [Compound 19, 1-(5-(3,5-Difluorophenyl)-2H-tetrazol-2-yl)-3,3-dimethylbutan-2-one] | 1900 |  |  |
| CN1CCN(CCCNC(=O)Cn2nc(-c3cccc(F)c3)c3ccccc32)CC1 [Compound 80, 2-(3-(3-Fluorophenyl)-1H-indazol-1-yl)-N-(3-(4-methylpiperazin-1-yl)propyl)acetamide] | 830 | 0.28 |  |
| CN(C)C(=O)Cn1nc(-c2cccc(F)c2)c2ccccc21 [Compound 88, 2-(3-(3-Fluorophenyl)-1H-indazol-1-yl)-N,N-dimethylacetamide] | 110 | 0.44 |  |
| CC(C)(C)C(=O)Cn1nnc(-c2cccc(F)c2)n1 [Compound 17, 1-(5-(3-Fluorophenyl)-2H-tetrazol-2-yl)-3,3-dimethylbutan-2-one] | 1500 |  |  |
| Fc1cccc(-c2nn(Cc3cc(-c4ccccc4)on3)c3ccccc23)c1 [Compound 78, 3-((3-(3-Fluorophenyl)-1H-indazol-1-yl)methyl)-5-phenylisoxazole] | > 100000 |  |  |
| CC(C)(C)C(=O)Cn1nc(-c2cccnc2)c2ccccc21 [Compound 67, 1-(3-(3-Pyridyl)-1H-indazol-1-yl)-3,3-dimethylbutan-2-one] | 3000 | 0.35 | loss in activity (heterocycle at indazole position 3): 10 fold |

| Molecule | IC50 (TbTryS IC50) [nM] | LE (ligand efficiency) | also measured |
| --- | --- | --- | --- |
| CC(C)(C)C(=O)Cn1nc(-c2ccco2)c2ccccc21 [Compound 66, 1-(3-(Furan-2-yl)-1H-indazol-1-yl)-3,3-dimethylbutan-2-one] | 1900 |  | loss in activity (heterocycle at indazole position 3): 10 fold |
| CC(C)Cn1cc(-c2nn(CC(=O)C(C)(C)C)c3ccccc23)cn1 [Compound 69, 1-(3-(1-Isobutyl-1H-pyrazol-4-yl)-1H-indazol-1-yl)-3,3-dimethylbutan-2-one] | > 100000 |  |  |
| CC(C)(C)S(=O)(=O)Cc1nc(-c2ccccc2F)cs1 [Compound 5, 2-((tert-Butylsulfonyl)methyl)-4-(2-fluorophenyl)thiazole] | 1100 |  |  |
| CC(C)(C)C(=O)Cn1nc(-c2ccncc2)c2ccccc21 [Compound 65, 3,3-Dimethyl-1-(3-(pyridin-4-yl)-1H-indazol-1-yl)butan-2-one] | 300 |  |  |
| COc1cccc(-c2csc(CS(=O)(=O)C(C)(C)C)n2)c1 [Compound 6, 2-((tert-Butylsulfonyl)methyl)-4-(3-methoxyphenyl)thiazole] | 12000 |  | loss in potency relative to unsubstituted compound 3: 10 fold |
| 3-(tert-Butylsulfonylmethyl)-1-(3-fluorophenyl)-1H-indazole [Compound 73] |  | 0.41 | IC50 (read-out: TbTryS IC50): 80 nM |
| CC(C)(C)C(=O)Cn1nc(-c2cccc(Cl)c2)c2ccccc21 [Compound 70, 1-(3-(3-Chlorophenyl)-1H-indazol-1-yl)-3,3-dimethylbutan-2-one] | 350 | 0.39 | IC50 (TbTryS IC50, values in running text): 354 nM |
| CC(C)(C)C(=O)Cn1nc(-c2ccc(Cl)cc2)c2ccccc21 [Compound 61, 1-(3-(4-Chlorophenyl)-1H-indazol-1-yl)-3,3-dimethylbutan-2-one] | > 100000 |  |  |
| CC(C)(C)OC(=O)N1CCN(CCNC(=O)Cn2nc(-c3cccc(F)c3)c3ccccc32)CC1 [Compound 82, tert-Butyl-4-(2-(2-(3-(3-fluorophenyl)-1H-indazol-1-yl)acetamido)ethyl)piperazine-1-carboxylate] | 2900 | 0.22 |  |
| CCN(CC)C(=O)Cn1nc(-c2cccc(F)c2)c2ccccc21 [Compound 87, N,N-Diethyl-2-(3-(3-fluorophenyl)-1H-indazol-1-yl)acetamide] | 200 | 0.39 |  |
| O=C(Cn1nc(-c2cccc(F)c2)c2ccccc21)NCCCn1ccnc1 [Compound 81, N-(3-(1H-Imidazol-1-yl)propyl)-2-(3-(3-fluorophenyl)-1H-indazol-1-yl)acetamide] | 350 | 0.32 | decrease in potency relative to 84: eight |
| CC(C)(C)C(=O)Cn1nc(-c2cccc3[nH]ccc23)c2ccccc21 [Compound 62, 1-(3-(1H-Indol-4-yl)-1H-indazol-1-yl)-3,3-dimethylbutan-2-one] | 3700 |  |  |
| CN(C)C(=O)Cn1nnc(-c2cc(Cl)cc(Cl)c2)n1 [Compound 23, 2-(5-(3,5-Dichlorophenyl)-2H-tetrazol-2-yl)-N,N-dimethylacetamide] | 600 |  |  |
| CC(C)(C)C(=O)Cn1nnc(-c2ccccc2)n1 [Compound 14, 3,3-Dimethyl-1-(5-phenyl-2H-tetrazol-2-yl)butan-2-one] | 8800 | 0.39 |  |
| CC(C)(C)S(=O)(=O)Cn1nc(-c2cccc(F)c2)c2ccccc21 [Compound 74, 1-(tert-Butylsulfonylmethyl)-3-(3-fluorophenyl)-1H-indazole] | 120 | 0.40 |  |
| Fc1cccc(-c2nn(Cc3cccnc3)c3ccccc23)c1 [Compound 76, 3-(3-Fluorophenyl)-1-(pyridin-3-ylmethyl)-1H-indazole] | 4500 | 0.32 |  |
